In ChEMBL document CHEMBL6074624, “FDA-approved small molecule kinase inhibitors for cancer treatment (2001-2015): Medical indication, structural optimization, and binding mode Part I” (Bioorg Med Chem, 2024):
In brackets after ≈: the same amount, converted by molar mass. One block for each compound: values may come before it.

What was measured:
SK-MEL-28 = experiment: Antiproliferative activity against human SK-MEL-28 cells assessed as reduction in cell growth after 3 days by MTT assay; type: functional, cell-based; conditions: SK-MEL-28, 72 h
A549 = experiment: cells; conditions: Homo sapiens, A549, 72 h
[1] = target: Cyclin-dependent kinase 2 (Homo sapiens, UniProt P24941); experiment: Inhibition of CDK2 (unknown origin)
[2] = target: Epidermal growth factor receptor (Homo sapiens, UniProt P00533, L858R/T790M); experiment: Inhibition of EGFR L858R/T790M (unknown origin)
Sequence of Epidermal growth factor receptor (Homo sapiens, UniProt P00533, L858R/T790M) (P00533 25-1210 T790M/L858R limits assumed): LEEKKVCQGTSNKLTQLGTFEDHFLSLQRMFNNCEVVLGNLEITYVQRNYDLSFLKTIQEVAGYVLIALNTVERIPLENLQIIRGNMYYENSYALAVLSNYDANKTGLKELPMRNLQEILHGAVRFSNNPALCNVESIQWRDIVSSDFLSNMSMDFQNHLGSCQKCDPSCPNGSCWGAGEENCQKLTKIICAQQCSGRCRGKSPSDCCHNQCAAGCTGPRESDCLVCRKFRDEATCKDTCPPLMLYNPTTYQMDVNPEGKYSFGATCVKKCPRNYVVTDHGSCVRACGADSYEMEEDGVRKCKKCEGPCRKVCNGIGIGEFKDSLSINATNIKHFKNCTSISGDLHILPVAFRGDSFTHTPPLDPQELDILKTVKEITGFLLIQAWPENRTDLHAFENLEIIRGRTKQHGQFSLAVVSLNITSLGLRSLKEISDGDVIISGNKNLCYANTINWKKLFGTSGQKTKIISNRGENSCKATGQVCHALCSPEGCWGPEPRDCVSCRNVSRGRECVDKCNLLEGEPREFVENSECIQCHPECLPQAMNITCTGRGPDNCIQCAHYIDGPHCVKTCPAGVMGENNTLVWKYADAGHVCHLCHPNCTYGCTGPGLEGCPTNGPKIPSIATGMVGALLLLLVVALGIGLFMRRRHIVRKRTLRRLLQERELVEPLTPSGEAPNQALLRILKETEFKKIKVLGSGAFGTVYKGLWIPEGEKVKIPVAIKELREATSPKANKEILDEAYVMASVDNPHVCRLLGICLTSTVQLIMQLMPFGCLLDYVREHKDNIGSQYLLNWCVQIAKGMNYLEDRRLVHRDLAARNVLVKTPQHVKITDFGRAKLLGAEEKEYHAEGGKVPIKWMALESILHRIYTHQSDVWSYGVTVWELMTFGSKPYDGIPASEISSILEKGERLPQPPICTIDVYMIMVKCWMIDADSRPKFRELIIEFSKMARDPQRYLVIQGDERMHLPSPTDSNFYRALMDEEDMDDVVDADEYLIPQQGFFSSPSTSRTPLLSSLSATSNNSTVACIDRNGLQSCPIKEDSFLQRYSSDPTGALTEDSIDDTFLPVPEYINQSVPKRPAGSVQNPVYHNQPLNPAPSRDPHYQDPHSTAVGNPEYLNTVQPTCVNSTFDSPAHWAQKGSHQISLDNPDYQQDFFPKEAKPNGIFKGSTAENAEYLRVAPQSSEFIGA

NCI-H1975 [3] = experiment: Antiproliferative activity against human NCI-H1975 cells assessed as reduction in cell viability after 24 hrs by MTT assay; type: functional, cell-based; conditions: NCI-H1975, 24 h
PC-9 [4] = experiment: Antiproliferative activity against human PC-9 cells assessed as reduction in cell growth incubated for 72 hrs by MTT assay; type: functional, cell-based; conditions: PC-9, 72 h
[5] = Inhibition of PDGFR (unknown origin) in NIH3T3 cells; type: cell-based, Homo sapiens
[6] = Half life in mouse at 10 mg/kg, po by LC-MS/MS analysis; type: ADME, organism-based; conditions: in vivo
[7] = target: T1, Tyrosine-protein kinase Lck (Homo sapiens, UniProt P06239); experiment: Inhibition of human LCK
T1 sequence (P06239 whole entry): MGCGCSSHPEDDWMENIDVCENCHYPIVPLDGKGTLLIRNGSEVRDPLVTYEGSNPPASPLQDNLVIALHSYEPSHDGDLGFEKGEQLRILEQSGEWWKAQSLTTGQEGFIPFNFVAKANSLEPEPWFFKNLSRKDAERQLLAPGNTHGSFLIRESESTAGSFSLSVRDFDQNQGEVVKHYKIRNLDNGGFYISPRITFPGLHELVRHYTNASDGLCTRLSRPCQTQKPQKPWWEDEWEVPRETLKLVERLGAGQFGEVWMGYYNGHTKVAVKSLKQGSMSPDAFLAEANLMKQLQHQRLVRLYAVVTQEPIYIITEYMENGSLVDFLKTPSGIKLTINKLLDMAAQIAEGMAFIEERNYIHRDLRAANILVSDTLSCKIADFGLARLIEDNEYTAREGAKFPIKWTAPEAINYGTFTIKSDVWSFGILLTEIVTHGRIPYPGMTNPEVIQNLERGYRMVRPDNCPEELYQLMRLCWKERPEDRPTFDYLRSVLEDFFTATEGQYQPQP

KB = experiment: cells; conditions: Homo sapiens, 72 h
[8] = target: Epidermal growth factor receptor (Homo sapiens, UniProt P00533)
MDA-MB-231 = experiment: Antiproliferative activity against human MDA-MB-231 cells; type: functional, cell-based
[9] = target: Tyrosine-protein kinase Yes (Homo sapiens, UniProt P07947); experiment: Inhibition of YES1 (unknown origin)
Sequence of Tyrosine-protein kinase Yes (P07947 whole entry): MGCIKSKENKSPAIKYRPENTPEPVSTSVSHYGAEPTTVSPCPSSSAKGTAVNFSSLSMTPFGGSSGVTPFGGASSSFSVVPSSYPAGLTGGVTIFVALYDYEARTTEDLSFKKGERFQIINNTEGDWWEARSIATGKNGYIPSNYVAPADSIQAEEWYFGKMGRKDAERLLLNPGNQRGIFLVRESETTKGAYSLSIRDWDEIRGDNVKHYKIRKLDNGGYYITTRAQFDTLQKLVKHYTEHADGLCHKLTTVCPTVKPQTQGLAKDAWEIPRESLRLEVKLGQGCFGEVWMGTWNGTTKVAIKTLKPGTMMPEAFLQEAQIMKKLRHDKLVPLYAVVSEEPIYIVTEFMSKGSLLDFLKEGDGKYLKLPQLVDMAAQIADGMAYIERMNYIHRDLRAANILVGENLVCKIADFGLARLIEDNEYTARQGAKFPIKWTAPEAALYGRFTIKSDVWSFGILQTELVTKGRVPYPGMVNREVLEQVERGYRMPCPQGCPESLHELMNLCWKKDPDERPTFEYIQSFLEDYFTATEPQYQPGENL

[10] = target: T1, Tyrosine-protein kinase Lck
PC-3 = experiment: Antiproliferative activity against human PC-3 cells; type: functional, cell-based
[11] = target: Mast/stem cell growth factor receptor Kit (Homo sapiens, UniProt P10721); experiment: Inhibition of c-Kit (unknown origin)
Sequence of Mast/stem cell growth factor receptor Kit (P10721 whole entry): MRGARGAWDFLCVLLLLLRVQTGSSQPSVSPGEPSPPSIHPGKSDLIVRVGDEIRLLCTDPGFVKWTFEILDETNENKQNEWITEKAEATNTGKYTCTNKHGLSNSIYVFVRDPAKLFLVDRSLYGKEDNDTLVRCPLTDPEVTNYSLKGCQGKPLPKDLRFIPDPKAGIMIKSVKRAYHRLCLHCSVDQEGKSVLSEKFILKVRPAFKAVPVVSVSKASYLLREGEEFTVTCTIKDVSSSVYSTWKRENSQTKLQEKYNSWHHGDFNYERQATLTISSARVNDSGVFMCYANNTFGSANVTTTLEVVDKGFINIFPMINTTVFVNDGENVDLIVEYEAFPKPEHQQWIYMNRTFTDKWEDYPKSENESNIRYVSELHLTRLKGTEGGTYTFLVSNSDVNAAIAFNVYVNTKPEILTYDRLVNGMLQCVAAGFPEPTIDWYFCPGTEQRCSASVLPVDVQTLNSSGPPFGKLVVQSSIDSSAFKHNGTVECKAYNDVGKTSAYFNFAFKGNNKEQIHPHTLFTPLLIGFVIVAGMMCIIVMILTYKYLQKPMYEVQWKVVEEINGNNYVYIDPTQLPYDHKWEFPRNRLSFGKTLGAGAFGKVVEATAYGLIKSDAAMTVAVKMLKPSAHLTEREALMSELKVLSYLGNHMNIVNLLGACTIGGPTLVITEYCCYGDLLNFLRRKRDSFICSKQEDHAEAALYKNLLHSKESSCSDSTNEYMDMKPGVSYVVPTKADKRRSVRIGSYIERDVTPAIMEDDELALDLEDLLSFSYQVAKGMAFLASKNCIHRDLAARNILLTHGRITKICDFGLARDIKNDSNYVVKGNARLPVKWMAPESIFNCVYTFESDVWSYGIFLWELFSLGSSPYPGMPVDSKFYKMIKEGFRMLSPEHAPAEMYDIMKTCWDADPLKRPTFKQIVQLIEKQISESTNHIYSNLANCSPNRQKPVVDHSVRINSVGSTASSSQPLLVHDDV

[12] = target: Proto-oncogene tyrosine-protein kinase Src (Homo sapiens, UniProt P12931); experiment: Inhibition of SRC (unknown origin)
Sequence of Proto-oncogene tyrosine-protein kinase Src (P12931 2-536 limits assumed): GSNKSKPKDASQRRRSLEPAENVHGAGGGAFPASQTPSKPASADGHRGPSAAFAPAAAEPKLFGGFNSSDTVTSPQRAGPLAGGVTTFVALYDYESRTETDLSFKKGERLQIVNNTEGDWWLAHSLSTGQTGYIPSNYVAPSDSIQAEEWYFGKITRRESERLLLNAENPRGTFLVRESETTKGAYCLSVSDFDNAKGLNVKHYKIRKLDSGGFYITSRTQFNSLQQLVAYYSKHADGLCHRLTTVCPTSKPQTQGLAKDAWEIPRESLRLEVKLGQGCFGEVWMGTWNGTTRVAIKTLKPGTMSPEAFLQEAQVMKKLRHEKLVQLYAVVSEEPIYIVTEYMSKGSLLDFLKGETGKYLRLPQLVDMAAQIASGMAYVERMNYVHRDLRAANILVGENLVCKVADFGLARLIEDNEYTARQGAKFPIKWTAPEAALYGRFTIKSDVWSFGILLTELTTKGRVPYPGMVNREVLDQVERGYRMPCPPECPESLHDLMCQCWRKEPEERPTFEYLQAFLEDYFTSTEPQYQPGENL

[13] = target: Vascular endothelial growth factor receptor 2 (Homo sapiens, UniProt P35968); experiment: Binding affinity to VEGFR-2 (unknown origin) assessed as inhibition constant
[14] = Cytotoxicity against HUVEC cells assessed as reduction in cell viability after 72 hrs by CellTiter-Glo assay; type: toxicity, cell-based; conditions: human
ACHN = experiment: Antiproliferative activity against human ACHN cells assessed as reduction in cell viability measured after 48 hrs by SRB assay; type: functional, cell-based
HT-29 = experiment: Antiproliferative activity against human HT-29 cells assessed as reduction in cell viability after 72 hrs by MTS assay; type: functional, cell-based; conditions: HT-29, 72 h
NCI-H1975 [15] = experiment: Growth inhibition of human NCI-H1975 cells; type: functional
[16] = Aqueous solubility of compound at pH 7.4 by LC-MS/MS analysis; type: physicochemical; conditions: buffer
[17] = Anticancer activity against human NCI-H1975 cells harboring EGFR L858R/T790M mutant assessed as reduction in cell viability measured after 72 hrs by MTT assay; type: functional, cell-based; conditions: NCI-H1975, 72 h
PC-9 [18] = experiment: Growth inhibition of human PC-9 cells; type: functional
Calu-3 = experiment: Growth inhibition of human Calu-3 cells; type: functional
PC-9 [19] = experiment: Antiproliferative activity against human PC-9 cells harboring EGFR L858R mutant assessed as reduction in cell viability measured after 72 hrs by SRB assay; type: functional, cell-based; conditions: PC-9, 72 h
[20] = target: Voltage-gated inwardly rectifying potassium channel KCNH2 (Homo sapiens, UniProt Q12809); experiment: Inhibition of hERG; type: toxicity
Sequence of Voltage-gated inwardly rectifying potassium channel KCNH2 (Q12809 whole entry): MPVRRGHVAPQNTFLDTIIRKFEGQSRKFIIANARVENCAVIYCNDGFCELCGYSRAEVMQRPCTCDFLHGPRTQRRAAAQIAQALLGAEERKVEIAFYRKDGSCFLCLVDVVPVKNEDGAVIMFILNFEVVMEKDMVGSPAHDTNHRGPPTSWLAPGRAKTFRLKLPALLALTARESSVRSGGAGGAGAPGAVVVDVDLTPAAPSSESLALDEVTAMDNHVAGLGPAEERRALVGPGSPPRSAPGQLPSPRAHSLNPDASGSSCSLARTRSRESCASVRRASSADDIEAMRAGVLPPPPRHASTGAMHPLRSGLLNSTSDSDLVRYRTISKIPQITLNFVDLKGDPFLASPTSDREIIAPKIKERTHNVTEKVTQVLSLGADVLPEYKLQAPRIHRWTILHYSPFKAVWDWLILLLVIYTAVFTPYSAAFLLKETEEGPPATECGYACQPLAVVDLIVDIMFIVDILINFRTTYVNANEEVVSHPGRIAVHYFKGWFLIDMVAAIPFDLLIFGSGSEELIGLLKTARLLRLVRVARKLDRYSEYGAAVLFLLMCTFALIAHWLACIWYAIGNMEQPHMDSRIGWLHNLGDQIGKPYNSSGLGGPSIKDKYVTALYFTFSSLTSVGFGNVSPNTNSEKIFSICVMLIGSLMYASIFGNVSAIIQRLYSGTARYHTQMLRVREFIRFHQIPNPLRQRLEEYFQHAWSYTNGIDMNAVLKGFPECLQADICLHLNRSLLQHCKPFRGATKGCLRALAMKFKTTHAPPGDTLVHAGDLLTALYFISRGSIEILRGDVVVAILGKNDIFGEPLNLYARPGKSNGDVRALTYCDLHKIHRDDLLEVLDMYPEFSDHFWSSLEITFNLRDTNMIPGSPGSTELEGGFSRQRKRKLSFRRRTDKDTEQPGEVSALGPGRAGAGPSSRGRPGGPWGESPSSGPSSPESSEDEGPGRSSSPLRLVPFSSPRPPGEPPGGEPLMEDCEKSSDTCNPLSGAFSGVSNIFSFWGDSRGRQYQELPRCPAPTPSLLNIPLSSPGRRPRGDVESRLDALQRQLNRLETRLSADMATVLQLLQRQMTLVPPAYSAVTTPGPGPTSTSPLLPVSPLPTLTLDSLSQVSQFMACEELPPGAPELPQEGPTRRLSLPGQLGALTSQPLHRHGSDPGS

SMILES: CCN(CC)CCNC(=O)c1c(C)[nH]c(/C=C2\C(=O)Nc3ccccc32)c1C
IC50 [5]: 100 nM

SMILES: COc1cc2ncnc(Nc3ccc(F)c(Cl)c3)c2cc1OC
half-life [6]: 3 h

SMILES: Cc1cccc(Cl)c1NC(=O)c1ccc2nc(Nc3cccc(NCCO)n3)sc2c1
IC50 [7]: 500 nM

SMILES: Cc1cccc(Nc2ncnc3ccc(N)cc23)c1
IC50 (KB): 1000 nM | IC50 [8]: 50 nM

SMILES: Cc1cc(Nc2ncc(C(=O)Nc3c(C)cccc3Cl)s2)nc(C)n1
IC50 [7]: 1000 nM | IC50 (MDA-MB-231): 12 nM | IC50 [9]: 0.5 nM | IC50 [10]: 0.4 nM | IC50 (PC-3): 9.4 nM | IC50 [11]: 5 nM | IC50 [12]: 0.5 nM

SMILES: C(=C\c1n[nH]c2cc(Sc3ccccc3)ccc12)/c1ccccc1
Ki [13]: 4.5 nM

SMILES: Cc1ccc2cc(NC(=O)c3ccccc3Sc3ccc4c(/C=C/c5ccccn5)n[nH]c4c3)ccc2n1
IC50 at 72 h [14]: 0.8 nM

SMILES: COc1cc2ncnc(Nc3cccc(C)c3)c2cc1OC
IC50 (KB): 50 nM | half-life [6]: 1 h

More lines, main results first:

EC50 (SK-MEL-28): 24 nM
SMILES: CC(=O)N1CCN(c2ccc(Nc3nccc(-c4sc(C(C)C)nc4-c4cccc(NS(=O)(=O)c5ccccc5)c4)n3)cn2)CC1

IC50 (A549): 20 nM
SMILES: CC(Oc1cc(-c2cnn(C3CCNCC3)c2)cnc1N)c1c(Cl)ccc(F)c1Cl (stereo not given)

IC50 [1]: > 5000 nM
SMILES: CCOC(=O)c1c(C)c2cnc(Nc3ccc(N4CCNCC4)cc3)nc2n(C2CCCC2)c1=O

IC50 [2]: 100 nM | IC50 (NCI-H1975 [3]): 770 nM
SMILES: COc1cc(N2CCN(C(C)=O)CC2)ccc1Nc1ncc(Cl)c(-c2c[nH]c3ccccc23)n1

IC50 (PC-9 [4]): 20 nM | IC50 (NCI-H1975 [3]): 80 nM
SMILES: C=CC(=O)Nc1cccc(Nc2ncc(Cl)c(-c3c[nH]c4ccccc34)n2)c1

IC50 (PC-9 [4]): 150 nM | IC50 [2]: 60 nM | IC50 (NCI-H1975 [3]): 20 nM
SMILES: C=CC(=O)Nc1ccc(OC)c(Nc2ncc(Cl)c(-c3c[nH]c4ccccc34)n2)c1

IC50 [1]: 11 nM
SMILES: CC(=O)c1c(C)c2cnc(Nc3ccc(N4CCNCC4)cc3)nc2n(C2CCCC2)c1=O

IC50 (ACHN): 1270 nM | IC50 (HT-29): 100 nM
SMILES: Cn1c(=O)cc(Nc2ccc(Br)cc2)c2c(=O)n(C3CC3)c(=O)n(-c3ccccc3)c21

IC50 (ACHN): 325 nM | IC50 (HT-29): 15 nM
SMILES: Cn1c(=O)cc(Nc2ccc(Br)cc2F)c2c(=O)n(C3CC3)c(=O)n(-c3ccccc3)c21

GI50 (NCI-H1975 [15]): 3 nM | solubility [16]: 222 µM (≈ 112 µg/mL) | GI50 (PC-9 [18]): 4 nM | GI50 (Calu-3): 180 nM | IC50 (PC-9 [19]): 2 nM
SMILES: C=CC(=O)Nc1cc(Nc2ncc(Cl)c(-c3cnn4ccccc34)n2)c(OC)cc1C(C)CCNC (stereo not given)
IC50 [17]: 0.6 nM | IC50 [20]: 6700 nM

GI50 (NCI-H1975 [15]): 7 nM | solubility [16]: 28 µM (≈ 14.9 µg/mL) | GI50 (PC-9 [18]): 10 nM | GI50 (Calu-3): 380 nM | IC50 (PC-9 [19]): 16 nM
SMILES: C=CC(=O)Nc1cc(Nc2ncc(Cl)c(-c3cnn4ccccc34)n2)c(OC)cc1C1CC[C@@H](N(C)C)C1 (stereo not given in full)
IC50 [17]: 2 nM | IC50 [20]: 5600 nM
